The results in this text go back to patent US20140039004A1, “METHOD OF TREATING OF GASTROESOPHAGEAL REFLUX DISEASE” (ONO PHARMACEUTICAL CO., LTD., priority 2012, published 2014).

Where two headings read alike, the source gives them in different places.

Format in all cases: in vivo, Cynomolgus monkeys
Data set [1] deals with transient lower esophageal sphincter relaxation. The data set is described as follows: Action on transient lower esophageal sphincter relaxation (TLESR) (2). The settings on record: 0.01 and 0.1 mg/kg s.c. 30 min before high-fat diet and air injection; measured for 45 minutes; vs vehicle-administered group; FIG. 3. As for the experimental part: Cynomolgus monkeys (aged 4 to 6 years, female, Japan Laboratory Animals, Inc., no history of administration) were acclimated to a monkey chair for 2 days or more, and were fasted for 12 hours or more. After that, on the day of experiment, the monkeys were immobilized in the monkey chair after the measurement of body weight, and was acclimated for another one hour or more. A high-fat diet/air injection catheter and a sensor catheter for measuring pressure were inserted from a nostril and the oral cavity. A high-fat diet was injected into the stomach so that the final volume would be 80 mL, and air was then injected up to a pressure in the stomach of 20 mmHg, and maintained. The pressure in the esophagus was measured by a sensor catheter in the lower esophageal sphincter region and the positions approximately 2, 3 and 6 cm above the lower esophageal sphincter. […] The frequency of TLESR was measured for 45 minutes from the injection of high-fat diet to the end of ventilation. Here, TLESR was measured considering that the relaxation response of the lower esophageal sphincter region was longer by […] and was not elicited by peristaltic motion occurring in the esophagus, and the rate of reduction of pressure was greater than […], and measured. […]

Data set [2] relates to hypersensitivity in the esophagus evoked by hydrochloric acid perfusion. The data set is described as follows: Hypersensitivity model evoked by acid (nociceptive threshold to esophageal electrical stimulation). As for the experimental part:
Cynomolgus monkeys (aged 4 to 6 years, female, Japan Laboratory Animals, Inc., no history of administration) were acclimated to a monkey chair for 2 days or more, and were fasted for 12 hours or more. After that, on the day of experiment, the monkeys were immobilized in the monkey chair after the measurement of body weight, and were acclimated for another one hour or more. An electrostimulation catheter was inserted from a nostril, and electrical stimulation was applied at the position approximately 10 cm above the cardiac part of stomach (the upper esophagus). […] This was carried out three times every 2 to 3 minutes at each evaluation time point, and the average value was used as a nociceptive threshold at each time point. Saline or hydrochloric acid (1.5 N) was perfused from the position approximately 3 cm above the cardiac region (the lower esophagus) to the stomach at an injection rate of 160 mL/h for 30 minutes. The nociceptive thresholds were measured before and after perfusion of saline in the esophagus, before perfusion of hydrochloric acid in the esophagus and at 0, 30, 60, 90 and 120 minutes after perfusion of hydrochloric acid in the esophagus. The vehicle or Compound A (0.01 and 0.1 mg/kg, respectively) was subcutaneously administered 30 minutes before the start of the perfusion of hydrochloric acid. […] The endpoint was assessed by comparing the nociceptive thresholds before and after perfusion of hydrochloric acid, the nociceptive threshold of the vehicle-administered group at each time point and the nociceptive threshold of the Compound A-administered group at each time point. […]

Data set [3] relates to hypersensitivity in the esophagus evoked by continuous electrical stimulation. The data set is described as follows: Hypersensitivity model evoked by electrical stimulation (nociceptive threshold). As for the experimental part: Cynomolgus monkeys (aged 4 to 6 years, female, Japan Laboratory Animals, Inc., no history of administration) were acclimated to a monkey chair for 2 days or more, and were fasted for 12 hours or more. After that, on the day of experiment, the monkeys were immobilized in the monkey chair after the measurement of body weight, and were acclimated for another one hour or more. An electrostimulation catheter was inserted from a nostril, and electrical stimulation was applied at the position approximately 10 cm above the cardiac part of stomach (the upper esophagus). […] This was carried out three times every 2 to 3 minutes at each evaluation time point, and the average value was used as a nociceptive behavior threshold at each time point. Hypersensitivity was induced by continuous electrical stimulation to the position approximately 3 cm above the cardiac region (the lower esophagus). That is, an electrostimulation catheter was inserted from a nostril, and electrical stimulation was applied at the position of the lower esophagus for 30 minutes. […] The endpoint was assessed by comparing the nociceptive thresholds before and after continuous electrical stimulation, the nociceptive threshold of the vehicle-administered group at each time point and the nociceptive threshold of the Compound A-administered group at each time point. […]

The nature of data set [4]: Evaluation of penetration into the center (plasma, CSF and tissue concentration by LC/MS/MS). Particulars: female, cynomolgus monkey, subcutaneous, 0.1 mg/kg s.c., 180 minutes after administration; for concentration at 180 min: n=3. As for the experimental part:
Cynomolgus monkeys (aged 4 to 6 years, female, Japan Laboratory Animals, Inc., no history of administration) were immobilized in a monkey chair, and Compound A was subcutaneously administered thereto (0.1 mg/kg), followed by collecting blood at 180 minutes after administration. The blood samples were centrifuged at 10000 g at 4° C. for 3 minutes to collect plasma. Next, the cerebrospinal fluid was collected under anesthesia by intravenous administration of pentobarbital sodium, and the lower esophagus, the upper esophagus, the dorsal root ganglion, the spinal cord and the brain stem were then collected. Furthermore, the dorsal root ganglion and the spinal cord were collected from the first to sixth thoracic spinal cord, which controls esophageal nerves. To the collected tissue, 4 times the amount of saline per wet weight of each tissue was added, followed by homogenization using Physcotron to obtain each tissue homogenate. The number of animals was 3.
The concentration of Compound A in each tissue was measured by a LC/MS/MS method.
To the samples for 50 μL of a calibration curve and test samples of Compound A, 1 mL of ultrapure water and an internal standard substance were added under ice cold conditions, followed by stirring. To a solid phase extraction cartridge (OAS1S MAX 30 mg/1 cc, Waters Corporation) which had been conditioned in advance, each sample was loaded and washing was carried out, followed by centrifugation, and a cleaning liquid was discharged from the cartridge for drying. Further, elution was carried out with 1 mL of an acetonitrile/acetic acid mixed liquid (49:1), and the eluate was concentrated and dried under a current of nitrogen (40° C. or less). The residue was redissolved in 200 μL of a methanol/0.1 vol % acetic acid solution (70: 30) to obtain a sample for the measurement of LC/MS/MS.
The analysis by LC/MS/MS was carried out under the following conditions.
Measuring device: Nanospace 3033 (Shiseido Co., Ltd.) Analysis column: SunFire C18 3.5 μm (2.1 mm i.d.×100 mm, 3.5 μm, Waters Corporation) Mobile phase: Acetonitrile/0.1 vol % acetic acid solution (70: 30) Cleaning liquid for cleaning port (one component): 2-propanol Cleaning liquid for cleaning port (two components): Mobile phase [acetonitrile/0.1 vol % acetic acid solution (70: 30)] Flow rate: 0.2 mL/min Column temperature: 35° C. Sample temperature: 4° C. Analysis time: 13 minutes
Measuring device: API4000 (AB SCIEX) Ion source: ESI Scan type: MRM
Using the peak area ratio (standard substance/internal standard substance) obtained by the measurement of a sample for a calibration curve, the calibration curve (y=aX+b, Y: Peak area ratio, X: Concentration) was made from the single regression line by the least squares method, and the peak area ratios of test samples were applied to the calibration curve to calculate a measured value.

Consider `Cc1cc(C(=O)O)ccc1COc1cc2c(cc1N(CC(C)C)S(=O)(=O)c1nccs1)CCC2` [Compound A, 4-[({6-[isobutyl(1,3-thiazol-2-ylsulfonyl)amino]-2,3-dihydro-1H-inden-5-yl}oxy)methyl]-3-methyl benzoic acid], for which, in data set [1], the “frequency of TLESR” value was “dose-dependently decreased”. The “nociceptive threshold after hydrochloric acid perfusion” value in data set [2] (0.1 mg/kg s.c. 30 min before HCl perfusion, FIG. 1) is on record as “suppressed to a normal level”. Moreover, in data set [2] (Compound A 0.01 and 0.1 mg/kg s.c. 30 min before HCl (1.5 N) perfusion, vs control group, FIG. 1), the “decrease in nociceptive threshold after hydrochloric acid perfusion” value is on record as “dose-dependently suppressed”. Besides, the “duration of suppressive action after hydrochloric acid perfusion” value in data set [2] (Compound A-administered groups, s.c., time after end of HCl perfusion) was at least 120 min. For the same molecule, the “decrease in nociceptive threshold after continuous electrical stimulation” value in data set [3] (0.1 mg/kg s.c. 30 min before 30 min electrical stimulation of lower esophagus, FIG. 2) is given as “suppressed to a normal level”. Also, the “duration of suppressive action after continuous electrical stimulation” value in data set [3] (0.1 mg/kg s.c., time after end of continuous electrical stimulation) is at least 120 min. Besides, the Kp at 180 min was 0.057 in data set [4] (brain stem / plasma, read-out: percentage to the concentration in plasma, brain stem tissue); 0.019 in data set [4] (cerebrospinal fluid / plasma, read-out: percentage to the concentration in plasma, cerebrospinal fluid); 0.163 in data set [4] (dorsal root ganglion / plasma, read-out: percentage to the concentration in plasma, dorsal root ganglion); 0.067 in data set [4] (lower esophagus / plasma, read-out: percentage to the concentration in plasma, lower esophagus); 0.051 in data set [4] (spinal cord / plasma, read-out: percentage to the concentration in plasma, spinal cord); 0.073 in data set [4] (upper esophagus / plasma, read-out: percentage to the concentration in plasma, upper esophagus). In addition, the concentration at 180 min in data set [4] (brain stem, tissue homogenate, read-out: average concentration in brain stem tissue) worked out at 0.22 ng/mL; in data set [4] (cerebrospinal fluid, read-out: average concentration in cerebrospinal fluid) it was 0.07 ng/mL; in data set [4] (dorsal root ganglion, tissue homogenate, read-out: average concentration in dorsal root ganglion) it was 0.62 ng/mL; in data set [4] (lower esophagus, tissue homogenate, read-out: average concentration in lower esophagus), 0.25 ng/mL; in data set [4] (plasma, read-out: average concentration in plasma), 3.79 ng/mL; in data set [4] (spinal cord, tissue homogenate, read-out: average concentration in spinal cord), 0.19 ng/mL. Further, the concentration at 180 min in data set [4] (upper esophagus, tissue homogenate, read-out: average concentration in upper esophagus) was determined as 0.28 ng/mL.
